Laboratory results from ChEMBL document CHEMBL1156829 (Proc Natl Acad Sci U S A, 2008).

How the values were obtained:
Plasmodium falciparum [1] = assay: NOVARTIS: Inhibition of Plasmodium falciparum 3D7 (drug-susceptible) proliferation in erythrocyte-based infection assay; assay type: functional, organism-based; conditions: Plasmodium falciparum, 3D7
[2] = NOVARTIS: Cytotoxicity against human hepatocellular carcinoma cell line (Huh7); assay type: toxicity, cell-based, Huh-7; conditions: Huh7 cells (hepatocellular carcinoma cell line)
Plasmodium falciparum [3] = assay: NOVARTIS: Inhibition of Plasmodium falciparum W2 (drug-resistant) proliferation in erythrocyte-based infection assay; assay type: functional, organism-based; conditions: Plasmodium falciparum, W2; read-out: EC50

Row | SMILES | EC50 (Plasmodium falciparum [1]) [nM] | CC50 [2] [µM] | EC50 (Plasmodium falciparum [3]) [nM]
1 | CN1C=CC=CC1=CC=C1C=Nc2ccccc21 | 236 | 20.9 | 232
2 | COc1cccc(/C=C2\SC(=Nc3ccccc3)NC2=O)c1OC | 521 | > 100 | 1100
3 | NN1C(=O)NC(=O)C1Nc1cccc([N+](=O)[O-])c1 (stereo not drawn) | 976 | > 12.7 | 139
4 | COc1cc(OC)cc(C(=O)Nc2cc(C(=O)N3CCC(Cc4ccccc4)CC3)ccc2N2CC3CC(C2)c2cccc(=O)n2C3)c1 (stereo not drawn) | 1870 | 50.3 | 548
5 | O=C1CSc2ccccc2N1 | > 10600 | > 100 | 1080
6 | CCC(CO)NCC(O)Cn1c2ccc(Br)cc2c2cc(Br)ccc21 (stereo not drawn) | 526 | 11.2 | 126
7 | CN1CCC(NCCc2ccc(Cl)cc2)CC1 | 909 | 18.9 | 210
8 | OC(CNC1CCCCC1)Cn1c2ccccc2c2ccccc21 (stereo not drawn) | 483 | 18.1 | 198
9 | Cn1nc(C(F)(F)F)c(-c2ccc(F)cc2)c1NC(=O)Nc1ccc(F)cc1 | 241 | 23.6 | 254
10 | COc1ccc(C=NNc2cc(C)nc3ccccc23)cc1 | 228 | 18.9 | 207
11 | CC1CCN(S(=O)(=O)c2ccc(C(=O)NCc3ccco3)cc2)CC1 | 894 | > 100 | 1090
12 | O=C(C1CC1)N1CCc2cc(Br)cc(S(=O)(=O)N3CCCC3)c21 | 929 | > 100 | 1120
13 | CCc1ccc(NC(=O)COC(=O)c2cccs2)cc1 | 4640 | > 100 | 1110
14 | Fc1ccc(CCNc2ncnc3c2[nH]c2ccccc23)cc1 | 257 | 12 | 133
15 | CC(C)(C)C(=O)NCCNc1ccc([N+](=O)[O-])cc1C(F)(F)F | 2260 | > 100 | 1110
16 | CCCCCCCCCCOC(=O)Cn1c(C)[n+](C)c2ccccc21 | > 12500 | 58.1 | 644
17 | O=C(NCCCN1CCOCC1)c1c[nH]c2ccc(S(=O)(=O)N3CCc4ccccc43)cc2c1=O | 610 | > 100 | 1110
18 | CC(=O)N(C1=C(N2CCCC2)C(=O)c2ccccc2C1=O)c1cccc(F)c1 | 406 | 29 | 323
19 | CCC(=O)Nc1ccc2nc(SCC(=O)Nc3ccc(C(C)=O)cc3)sc2c1 | > 12500 | > 100 | 1110
20 | COCCN(Cc1cc2ccc(F)cc2nc1N1CCCCCC1)C(=O)c1ccoc1 | 5200 | > 100 | 1110
21 | COc1ccc(C2C(C(C)=O)=C(O)C(=O)N2CCCn2ccnc2)c(OC)c1 (stereo not drawn) | 4480 | > 100 | 1110
22 | Nc1nonc1-n1nnc(C(=O)NN=Cc2cc(Br)cs2)c1-c1ccccc1 | 692 | > 100 | 1100
23 | COc1ccc(S(=O)(=O)N2CCC(c3nnc(-c4ccccc4OC)o3)CC2)cc1 | 2300 | > 100 | 1100
24 | O=C1CC(c2ccc([N+](=O)[O-])cc2)C2=C(CC(c3ccc(F)cc3)CC2=O)N1 (stereo not drawn) | 2020 | > 100 | 1070

Row | SMILES | EC50 (Plasmodium falciparum [1]) [nM] | CC50 [2] [µM] | EC50 (Plasmodium falciparum [3]) [nM]
25 | Fc1ccc(CN2CCc3nc(N4CCCCC4)sc3C2)cc1F | 1100 | > 100 | 1070
26 | O=c1nc(C=Cc2ccc(Cl)cc2)oc2ccccc12 | 1100 | > 100 | 1060
27 | CCOC(=O)N1CCC(n2c(SCC(=O)N3CCCCCC3)nc3ccccc3c2=O)CC1 | 7340 | > 100 | 1090
28 | CCCCc1ccc(C(=O)Oc2ccccc2-c2nc3cc(C)ccn3c2NC(C)(C)CC(C)(C)C)cc1 | 616 | > 10 | 107
29 | Nc1c(C(=O)Nc2ccc(C3=NCCN3)cc2)cccc1C(=O)Nc1ccc(C2=NCCN2)cc1 | 259 | > 10 | 107
30 | Nc1ccc(C(=O)NN=Cc2cccc([N+](=O)[O-])c2)cc1 | 298 | > 10 | 112
31 | CCC(C)(C)n1nnnc1C(c1cc2cc(C)cc(C)c2[nH]c1=O)N1CCN(c2ccc(O)cc2)CC1 (stereo not drawn) | 2440 | > 100 | 1070
32 | Fc1ccc(-c2c[n+](-c3ccccc3)c3n2CCS3)cc1 | 764 | > 100 | 1070
33 | CCOC(=O)c1c(C)n(-c2ccccc2)c2ccc(OC(=O)c3ccco3)cc12 | 607 | > 100 | 1140
34 | CC(C)CN1C(=O)c2ccccc2C(C(=O)Nc2ccc(CN3CCC(C)CC3)cc2)C1c1cccs1 (stereo not drawn) | 2050 | > 100 | 1130
35 | COc1ccc(CN2CCC(C(=O)Nc3ccc(Oc4cccnc4)cc3)CC2)cc1 | 2220 | 59.4 | 640
36 | CC(=O)N(C1=C(N2CCOCC2)C(=O)c2ccccc2C1=O)c1ccc(I)cc1 | 73.7 | 10 | 108
37 | Cn1nc(C(F)(F)F)c(C(=O)Nc2ccc(Cl)cc2)c1Sc1ccc(Cl)cc1 | 749 | 34.8 | 369
38 | COc1ccc(/C=C2\SC(=Nc3ccccc3OC)NC2=O)cc1 | 249 | > 10 | 106
39 | CCCCCNC(=O)C1CSC(c2ccoc2)N1C(=O)c1ccccc1Cl (stereo not drawn) | 2320 | > 100 | 1060
40 | COc1ccccc1Nc1nc(NCc2ccccc2)c2ccccc2n1 | 312 | 19.6 | 212
41 | Cc1ccc(C#N)c(SCc2nnc(-c3ccc(Cl)cc3)o2)n1 | > 1250 | > 10 | 108
42 | Sc1nnc(-c2ccncc2)n1CCc1ccccc1 | > 7490 | > 100 | 1080
43 | CCCCCN(CCCCC)C(O)c1cc2c(c3ccccc13)CCCC2 (stereo not drawn) | 58.2 | 35.5 | 377
44 | COc1ccc(-[n+]2cc(-c3ccc(Cl)cc3)n3c2SCCC3)cc1 | 673 | > 100 | 1060
45 | Cc1ccc(-c2cc(C(=O)OCC(=O)c3cccc([N+](=O)[O-])c3)c3cc(C)ccc3n2)cc1 | > 12500 | > 100 | 1090
46 | CCC(C)(C)c1ccc(OCC(O)CNCc2ccccc2)c(C(C)(C)CC)c1 (stereo not drawn) | 361 | 9.2 | 100
47 | O=C1C2C(C(=O)N1c1cccc3ccccc13)C1C=CC2C12CC2 (stereo not drawn) | 6590 | > 100 | 1090
48 | Cc1ccccc1Cn1c(C)c[n+]2ccsc12 | 1280 | > 10 | 113

Row | SMILES | EC50 (Plasmodium falciparum [1]) [nM] | CC50 [2] [µM] | EC50 (Plasmodium falciparum [3]) [nM]
49 | COc1ccc2c(c1)C(C)(CC#N)C(=O)N2C (stereo not drawn) | 5640 | > 100 | 1060
50 | O=C(c1ccccc1)C1NC1c1ccc(Br)cc1 (stereo not drawn) | 989 | > 100 | 1120
51 | O=C(NC1CC1)C1CCN(c2cccc3c2C(=O)N(Cc2cccc(C(F)(F)F)c2)C3=O)CC1 | 2160 | > 100 | 1110
52 | CCCCN(CCCC)S(=O)(=O)c1cc(Br)cc2c1N(C(C)=O)CC2 | 3290 | > 100 | 1090
53 | O=C1CC(c2ccccc2)CC2=C1C(c1ccccc1[N+](=O)[O-])Nc1ccccc1N2 (stereo not drawn) | 3470 | > 100 | 1110
54 | COc1ccccc1N1C(=N)SC(=Cc2ccc(OCc3ccccc3F)cc2)C1=O | 422 | > 100 | 1080
55 | CC(=O)Nc1ccc2c(c1)C(=O)N(C(C(=O)NCC(=O)O)C1CCCCC1)[C@@H](CCC(=O)O)C(=O)N2 (stereo partly drawn) | > 418 | > 10 | 109
56 | c1cc2cc3c(cc2c2cc4c(cc12)C[N+]1(CCCC1)C4)C[N+]1(CCCC1)C3 | 645 | > 100 | 1060
57 | CCOC(=O)N1CCC(NC(=O)c2c(C)nn(-c3cccc(C)c3)c2-n2cccc2)CC1 | 280 | > 100 | 1060
58 | O=C(COc1ccc(Cl)cc1)N1CCCn2cccc2C1c1ccc(Cl)cc1 (stereo not drawn) | 631 | > 10 | 108
59 | CCc1ccc(NC(=O)c2sc3nc4c(c(-c5ccco5)c3c2N)CCCC4)cc1 | 1820 | > 100 | 1070
60 | COc1ccc(C2C(C(=O)Nc3cccc(C(F)(F)F)c3)c3ccccc3C(=O)N2C2CCCCC2)cc1 (stereo not drawn) | 1830 | > 100 | 1130
61 | CC(C)(C)c1ccc(C(=O)C[n+]2cc(-c3ccccc3)n3c2CCC3)cc1 | 1140 | 43 | 470
62 | O=C1CSc2nc3ccccc3n21 | 7920 | > 100 | 1060
63 | Cc1cccc(CCNc2cc(C)nc3ncnn23)c1 | 841 | > 100 | 1080
64 | S=C(NCc1ccco1)NN=CC=NNC(=S)NCc1ccco1 | 121 | > 10 | 113
65 | NCC(c1ccc(F)cc1)c1ccc(F)cc1 | > 345 | > 9.21 | 99.8
66 | CC(C)c1ccc(NC(=O)/C=C/c2ccccc2Cl)cc1 | 186 | > 10 | 109
67 | CN1CCN(c2nc(Nc3ccc(O)cc3)nc3ccccc23)CC1 | 626 | 41.8 | 443
68 | CC[n+]1c(C=C2C=CN(C)C=C2)ccc2cc(C)ccc21 | 388 | > 26.8 | 286
69 | CN1CCc2c(sc3c2C(=O)NC(c2ccc(O)cc2)N3)C1 (stereo not drawn) | 755 | 33.5 | 378
70 | COc1ccc(C=CC(=O)Nc2ccncc2)cc1OC | 358 | > 100 | 1070
71 | CCOC(=O)c1sc(NC(=O)C(C)Sc2nnc(CNC(=O)c3cccc(F)c3)n2-c2cccc(C)c2)c(C(=O)OCC)c1C (stereo not drawn) | > 12500 | > 100 | 1100
